Experimental data reported in patent publication US20040266811A1, “Methods for inducing regeneration, remyelination, and hypermyelination of nervous tissue” (priority 2002, published 2004).
“And” between values parts separate entries of the source, which are not always exact repeats. Equal values may be shown once. “Also recorded” adds a separate entry of the source.

Key:
[1] = biological target: T1, full-length FKBP52 (GST fusion protein) (Homo sapiens, UniProt Q02790); assay: 3H-FK506 competition assay on bead-immobilized GST-FKBP52; type: binding; details: 10 nM FK506 with 3H-dihydro-FK506, 200-fold molar excess of cold ligand
T1 construct: GST-FKBP52 was constructed by PCR amplification of full-length FKBP52 from the pcDNA3 vector; made in house; host or cells: bacteria
T1 sequence (Q02790 1-459): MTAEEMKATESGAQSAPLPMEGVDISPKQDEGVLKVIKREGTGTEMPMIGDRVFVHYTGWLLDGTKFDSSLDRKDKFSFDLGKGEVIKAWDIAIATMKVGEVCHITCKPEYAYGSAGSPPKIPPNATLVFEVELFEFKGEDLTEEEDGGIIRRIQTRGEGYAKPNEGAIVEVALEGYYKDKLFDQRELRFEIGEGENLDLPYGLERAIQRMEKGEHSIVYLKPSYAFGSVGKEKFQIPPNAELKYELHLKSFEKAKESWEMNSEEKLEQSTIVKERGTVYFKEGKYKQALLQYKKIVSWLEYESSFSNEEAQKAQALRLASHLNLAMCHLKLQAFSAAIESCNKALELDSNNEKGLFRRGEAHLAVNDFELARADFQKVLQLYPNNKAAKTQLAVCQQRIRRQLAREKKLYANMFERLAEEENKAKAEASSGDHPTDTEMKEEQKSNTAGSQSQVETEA
Description: There was virtually no binding of GST alone to FKBP52 (not shown). […] Full-length FKBP52 was expressed as a GST fusion protein, purified over GSH-Sepharose resin. […] After extensive washing, the bound fraction (gray bars) was determined by liquid scintillation counting. […] Values are averages (with standard deviations) of three independent experiments.
Competition of […] binding to FKBP52 was carried out on GSH Sepharose beads from GST-FKBP52 expressed in bacteria. Briefly, GST-FKBP52 was constructed by PCR amplification of full-length FKBP52 from the pcDNA3 vector (Invitrogen, Carlsbad, Calif.), with FKBP52-specific primers flanked by EcORI/BamH1 restriction endonuclease sites. A 1.4-kb fragment was subsequently ligated into EcORI/BamH1, and digested with CIP-treated pGEX-6p to obtain a GST-fusion protein. The correct reading frame was verified by DNA sequencing. GST-FKBP52 fusion proteins were generated upon induction with 0.1 mM IPTG (from a 500-ml culture), and bacterial lysates were incubated with GSH Sepharose beads (Pharmacia, Peapack, N.J.) to collect FKBP52. Following several washes, first in bacterial lysis buffer and subsequently in PBS, the FKBP52 was over 90% pure, and was used for in vitro competition studies.

[2] = system: crushed sciatic nerve; assay: Sciatic nerve crush and regeneration (electron microscopy morphometry); type: in vivo, adult, outbred ICR mice
Description: (A) The sciatic nerves of adult, outbred ICR mice were crushed, as previously described (Gondre et al., Accelerated nerve regeneration mediated by Schwann cells expressing a mutant form of the POU protein SCIP. J. Cell Biol., 141:493-501, 1998). Following the surgery, the animals were randomized into treatment groups of either GM-284 (10 mg/kg) or vehicle. At the end of 30 days, the animals were sacrificed, their sciatic nerves were prepared for electron microscopy, and subsequently evaluated for the extent of both axonal and myelin regeneration. All sampling was done at the same proximal-distal levels, and approximately 5 mm below the crush site. […] (B) Quantitative analysis of both axonal and myelin growth in response to GM-284 treatment was carried out by digitizing the images in (A), and determining the axonal and myelin volumes, calculated in voxels.
Mice were anesthetized (i.p.) with 0.5 cc of 2.5% Avertin/saline, before perfusion via the left ventricle. The animals were perfused for 30 min at 37° C., with a rat Ringer's solution containing heparin (2.0 ml/L; stock=10,000 units/ml) and 2% lidocaine (3.0 ml/L), followed by perfusion for 7-10 min with 2% glutaraldehyde/1% paraformaldehyde in 0.15 M sodium cacodylate, pH 7.2. Approximately 1 cm of sciatic nerve was dissected from the hind leg (from the hip to the knee), and split into 3 sections (proximal, medial, and distal). A 2-mm length was taken from each of the three sections, then immersion fixed. The primary fixation was carried out for 2-4 h total, at 4° C., with 2% glutaraldehyde/1% paraformaldehyde in 0.15 M sodium cacodylate buffer, pH 7.2. Tissues were rinsed 6 times, for 20 min each, then rinsed overnight at 4° C. in 0.15 M sodium cacodylate buffer, pH 7.2.
Secondary fixation was carried out for 4 h at 4° C. in 1% osmium-tetroxide/1.5% potassium-ferrocyanide in 0.15 M sodium cacodylate buffer, pH 7.2. Tissues were rinsed 3 times, for 10 min each, in Millipore-filtered water at 4° C., then stained en bloc in 2% uranyl acetate (aq) at 4° C. for 1 h. At this point, the tissues were dehydrated once for 8 min in a graded ethanol series starting with water, 30%, 50%, 70%, 95%, and then dehydrated twice, for 10 min each, in 100% ethanol and then in propylene oxide. After dehydration, the nerve tissue was infiltrated with propylene oxide/Durcupan (Fluka Chemika-BioChemika, Ronkonkoma, N.Y.), in a 25/75 ratio, for 60 min at room temperature. This was followed by infiltration three times, for 120 min each, in Durcupan resin at room temperature. Sciatic nerves were flat-embedded in fresh Durcupan resin, and polymerized for 24-36 h at 65° C. 1-μM-thick sections were stained with Toluidine blue. Silver sections were cut on a Diatome diamond knife, and stained with 2% uranyl acetate for 30 min at room temperature, and with Reynold's lead citrate for 7 min. Thin sections were viewed at 60 kv, and photographed on a JEOL 100 CX conventional transmission electron microscope.
Deep anesthesia was obtained with i.p. injection of Avertin. Electrophysiology recordings were obtained, as previously described (Bieri et al., Abnormal nerve conduction studies in mice expressing a mutant form of the POU transcription factor SCIP. J. Neurosci. Res., 50:821-28, 1997). Immediately afterward, the right sciatic nerve of each animal was exposed and crushed 2 times, for 30 sec each, using a #5 Dumont forceps. In brief, the skin was prepped bilaterally prior to electrophysiologic testing. […]

[3] = 10 mg/kg daily, one month after crush

## CCC(C)(C)C(=O)C(=O)N1CCC[C@H]1c1nnc([C@@H]2CCCN2C(=O)C(=O)C(C)(C)CC)o1 [GM-284]
[1]
  competition for binding of 3H-FK506 to immobilized FKBP52: bind to FKBP52 with similar affinities; also recorded: each ligand is able to compete for binding to the receptor; also recorded: competes with FK506 for binding to full-length FKBP52
[2]; [3]
  increase in myelin (volume in voxels): ~3 fold
  increase in the size of myelinated axons: 3- to 4 fold and 4 fold
[2]; 10 mg/kg daily, one month after crush, electron microscopy
  histology of regenerated sciatic nerve: induced both axonal hypertrophy and a global over-elaboration of the myelin organelle; also recorded: enhanced axonal regeneration; also recorded: clear axonal hypertrophy, as well as hypermyelination; also recorded: hypermyelination and axonal hypertrophy
[2]; GM-284-treated group, NIH Image
  ratio of axonal volume to myelin volume: 0.2
[2]; vs vehicle, p<0.0001
  increase in myelin volume, relative to each axon: 20 fold
